Literature values, collected in patent US20020037319A1, “Drug preparations” (priority 1999, published 2002).
Where a name gives a salt, the structure may show the parent alone.

Columns and labels:
[1] = oral, therapeutic dosages between 100 mg and 200 mg per day

Structure (SMILES)	solubility in water	treated patients who experience some form of GI (gastrointestinal) distress [1]	solubility in chloroform (sodium or potassium salt)	solubility in dilute acid (sodium or potassium salt)	solubility in ethanol (sodium or potassium salt)	solubility in methanol (sodium or potassium salt)
O=C(O)Cc1ccccc1Nc1c(Cl)cccc1Cl [Diclofenac sodium]	sparingly soluble	–	–	–	–	–
O=C(O)Cc1ccccc1Nc1c(Cl)cccc1Cl [diclofenac potassium]	soluble	–	–	–	–	–
O=C(O)Cc1ccccc1Nc1c(Cl)cccc1Cl [diclofenac, 2-[2,6-di-chlorophenyl)amino]benzeneacetic acid, monosodium or monopotassium salt]	–	more than 50%	practically insoluble	practically insoluble	soluble	freely soluble
